Experimental data as given in patent US9713613B2, “Methods and compositions for the treatment of cancer and related hyperproliferative disorders” (priority 2007, dated 2017).

Legend:
[1] = tested on: endogenous SREBPs; assay: Luciferase reporter assay (pSRE-Luc, normalized by β-gal) in HEK293 cells; assay type: cell-based, human; parameters: Luc/Gal: dose or concentration left out as unconfirmed
Procedure: On day 0, HEK293 cells were plated out in triplicate at a density of 5×10^3/well onto a 96-well plate in a Dulbecco's modified Eagle's medium with 10% fetal bovine serum, 100 units/mL penicillin, and 100 μg/mL streptomycin sulfate. On day 2, the cells were transiently co-transfected with the following plasmids by using Lipofectamine reagent (Invitrogen): 0.4 μg/well pSRE-Luc (an SRE-1-driven luciferase reporter construct; Hua et al., 1995 J Biol Chem 270, 29422-7), and 0.1 μg/well a b-gal reporter in which the expression of β-gal is controlled by an actin promoter in a final volume of […]. After incubation for 5 hrs at 37° C., the cells were washed with phosphate-buffered saline and then incubated in 100 μl of Dulbecco's modified Eagle's medium with 10% lipid-depleted serum, […] penicillin, and 100 μg/mL streptomycin sulfate in the absence or presence of fatostatin A. After 20 hrs of incubation, the cells in each well were lysed with 20 μL of 1× Reporter Lysis Buffer (Promega), and aliquots were used for measurement of luciferase (10 μL) and β-galactosidase (10 μL) activities. For luciferase assay, photon production was detected as counts per second in a Wallac 1420 ARVOsx multilabel counter (PerkinElmer). For β-galactosidase assays, hydrolysis of O-nitrophenyl-β-D-galactosidase was measured after incubation for 0.5 h at 37° C. by a microplate reader at the wave length of 405 nm (Tecan). The luciferase activity (counts per second) was normalized by the activity of β-galactosidase (OD units). For overexpression of the N-terminal matured form of SREBP-1c, pCMV-SREBP-1c (1-436) was co-transfected with pSRE-Luc. pSRE-Luc and pCMV-SREBP-1c (1-436) were provided by J. L. Goldstein (University of Texas Southwestern Medical Center). […]

[2] = tested on: 3T3-L1 cells; assay: adipogenesis assay (formation of oil droplets); assay type: cell-based, mouse; parameters: key: +: The analogues that completely inhibited the formation of oil droplets in cells were scored to be adipogenesis-inhibiting analogues; conditions: formation of oil droplets in cells
Procedure: The adipogenesis assay was performed as described (Choi et al., 2003).

[3] = entries 1-18 (FIG. 15), none = 9.4426
[4] = entries 1, 19-34 (FIG. 16), None = 15.0759
[5] = entries 1, 35-39 (FIG. 17), None = 18
[6] = entries 1, 40-44 (FIG. 17), None = 8.2181

Row | Compound | Luc/Gal [1, 3] | Luc/Gal [1, 4] | other results
1 | CCCc1cc(-c2nc(-c3ccc(Br)cc3)cs2)ccn1 [Compound 2, 4-(4-(4-bromophenyl)thiazol-2-yl)-2-propylpyridine] | 4.5130 | – | –
2 | CCCc1cc(-c2nc(-c3ccccc3)cs2)ccn1 [Compound 3, 4-(4-phenylthiazol-2-yl)-2-propylpyridine] | 7.4643 | – | –
3 | CCCc1cc(-c2nc(-c3ccc(Cl)cc3)cs2)ccn1 [Compound 4, 4-(4-(4-chlorophenyl)thiazol-2-yl)-2-propylpyridine] | 6.3808 | – | –
4 | CCc1ccc(-c2csc(-c3ccncc3)n2)cc1 [Compound 5, 4-(4-(4-ethylphenyl)thiazol-2-yl)pyridine] | 7.6190 | – | –
5 | Cc1ccc(-c2csc(-c3ccncc3)n2)cc1 [Compound 6, 4-(4-p-tolylthiazol-2-yl)pyridine] | 13.4689 | – | –
6 | COc1ccc(-c2csc(-c3ccncc3)n2)cc1 [Compound 7, 4-(4-(4-methoxyphenyl)thiazol-2-yl)pyridine] | 18.3174 | – | –
7 | CCCc1cc(-c2nc(-c3ccc(OC(=O)c4ccccc4)cc3)cs2)ccn1 [Compound 8, 4-(2-(2-propylpyridin-4-yl)thiazol-4-yl)phenylbenzoate] | 7.7585 | – | Inhibition of adipogenesis [2]: +
8 | CCCc1cc(-c2nc(-c3ccc(O)cc3)cs2)ccn1 [Compound 9, 4-(2-(2-propylpyridin-4-yl)thiazol-4-yl)phenol] | 14.5234 | – | Inhibition of adipogenesis [2]: +
9 | CCCc1cc(-c2nc(-c3ccc(OCC(=O)OC)cc3)cs2)ccn1 [Compound 10, methyl 2-(4-(2-(2-propylpyridin-4-yl)thiazol-4-yl)phenoxy)acetate] | 10.7717 | – | –
10 | COc1ccc(-c2nc(-c3ccc(Cl)cc3)cs2)cc1OC [Compound 12, 4-(4-chlorophenyl)-2-(3,4-dimethoxyphenyl)thiazole] | 5.9214 | – | –
11 | CCCc1cc(-c2nc(-c3ccc(Cl)c(Cl)c3)cs2)ccn1 [Compound 13, 4-(4-(3,4-dichlorophenyl)thiazol-2-yl)-2-propylpyridine] | 5.2391 | – | –
12 | CCCc1cc(-c2nc(-c3ccc(F)cc3)cs2)ccn1 [Compound 14, 4-(4-(4-fluorophenyl)thiazol-2-yl)-2-propylpyridine] | 9.6605 | – | –
13 | CCCc1cc(-c2nc(-c3ccc(F)cc3F)cs2)ccn1 [Compound 15, 4-(4-(2,4-difluorophenyl)thiazol-2-yl)-2-propylpyridine] | 10.8383 | – | –
14 | CCCc1cc(-c2nc(-c3ccc(N)cc3)cs2)ccn1 [Compound 16, 4-(2-(2-propylpyridin-4-yl)thiazol-4-yl)benzenamine] | 10.3338 | – | Inhibition of adipogenesis [2]: +
15 | CCCc1cc(-c2nc(-c3ccc(NC(C)=O)cc3)cs2)ccn1 [Compound 18, N-(4-(2-(2-propylpyridin-4-yl)thiazol-4-yl)phenyl)acetamide] | 11.7685 | – | Inhibition of adipogenesis [2]: +
16 | CCCc1cc(-c2nc(-c3ccc(NCc4ccccc4)cc3)cs2)ccn1 [Compound 20, N-benzyl-4-(2-(2-propylpyridin-4-yl)thiazol-4-yl)benzenamine] | – | 5.6748 | Inhibition of adipogenesis [2]: +
17 | CCCc1cc(-c2nc(-c3ccc(NCC4CC4)cc3)cs2)ccn1 [Compound 21, N-(cyclopropylmethyl)-4-(2-(2-propylpyridin-4-yl)thiazol-4-yl)benzenamine] | – | 6.4378 | Inhibition of adipogenesis [2]: +
18 | CCCc1cc(-c2nc(-c3ccc(Br)cc3)c(C(=O)O)s2)ccn1 [Compound 22, 4-(4-bromophenyl)-2-(2-propylpyridin-4-yl)thiazole-5-carboxylic acid] | – | 21.5911 | –
19 | CCCc1cc(-c2nc(-c3ccc(Br)cc3)c(C(=O)OC)s2)ccn1 [Compound 23, methyl 4-(4-bromophenyl)-2-(2-propylpyridin-4-yl)thiazole-5-carboxylate] | – | 8.1137 | Inhibition of adipogenesis [2]: +
20 | CCCc1cc(-c2nc(-c3ccc(OC)cc3)cs2)ccn1 [Compound 24, 4-(4-(4-methoxyphenyl)thiazol-2-yl)-2-propylpyridine] | – | 11.0367 | –

Row | Compound | Luc/Gal [1, 3] | Luc/Gal [1, 4] | other results
21 | CCCc1cc(-c2nc(-c3cccc(OC)c3)cs2)ccn1 [Compound 25, 4-(4-(3-methoxyphenyl)thiazol-2-yl)-2-propylpyridine] | – | 7.8536 | –
22 | CCCc1cc(-c2nc(-c3ccccc3OC)cs2)ccn1 [Compound 26, 4-(4-(2-methoxyphenyl)thiazol-2-yl)-2-propylpyridine] | – | 8.3046 | Inhibition of adipogenesis [2]: +
23 | Cc1ccc(-c2csc(-c3ccccc3)n2)cc1 [Compound 27, 2-phenyl-4-p-tolylthiazole] | – | 13.8222 | –
24 | CCCc1cc(-c2nc(-c3cccc(O)c3)cs2)ccn1 [Compound 28, 3-(2-(2-propylpyridin-4-yl)thiazol-4-yl)phenol] | – | 12.7791 | –
25 | CCCc1cc(-c2nc(-c3ccccc3O)cs2)ccn1 [Compound 29, 2-(2-(2-propylpyridin-4-yl)thiazol-4-yl)phenol] | – | 8.2379 | –
26 | CCCc1cc(-c2nc(-c3ccc(Br)cc3)c(C(=O)NC(C)C)s2)ccn1 [Compound 30, 4-(4-bromophenyl)-N-isopropyl-2-(2-propylpyridin-4-yl)thiazole-5-carboxamide] | – | 16.0226 | –
27 | Clc1ccc(-c2csc(-c3ccncc3)n2)cc1 [Compound 31, 4-(4-(4-chlorophenyl)thiazol-2-yl)pyridine] | – | 16.9971 | –
28 | CCc1cc(-c2nc(-c3ccc(Cl)cc3)cs2)ccn1 [Compound 32, 4-(4-(4-chlorophenyl)thiazol-2-yl)-2-ethylpyridine] | – | 9.5798 | –
29 | Clc1ccc(-c2csc(-c3ccccc3)n2)cc1 [Compound 33, 4-(4-chlorophenyl)-2-phenylthiazole] | – | 17.8175 | –
30 | CCCc1cc(-c2nc(-c3cccs3)cs2)ccn1 [Compound 34, 2-propyl-4-(4-(thiophen-2-yl)thiazol-2-yl)pyridine] | – | 12.1593 | Inhibition of adipogenesis [2]: +
31 | CCCc1cc(-c2ccc(-c3ccc(C)cc3)cc2)ccn1 [Compound 35] | – | – | Inhibition of adipogenesis [2]: +; Luc/Gal [1, 5]: 11.36
32 | CCCc1cc(-c2nc(-c3ccc(C)cc3)c(C(=O)O)s2)ccn1 [Compound 36, 2-(2-propylpyridin-4-yl)-4-p-tolylthiazole-5-carboxylic acid] | – | – | Luc/Gal [1, 5]: 18.99
33 | CCc1cc(-c2nc(-c3ccc(C)cc3)cs2)ccn1 [Compound 37, 2-ethyl-4-(4-p-tolylthiazol-2-yl)pyridine] | – | – | Luc/Gal [1, 5]: 9.87
34 | CCCc1cc(-c2nc(-c3ccccc3)c(C(=O)O)s2)ccn1 [Compound 38, 4-phenyl-2-(2-propylpyridin-4-yl)thiazole-5-carboxylic acid] | – | – | Luc/Gal [1, 5]: 22.66
35 | CCCc1cc(-c2nc(-c3ccc(C)cc3)c(C(=O)OC)s2)ccn1 [Compound 39, methyl 2-(2-propylpyridin-4-yl)-4-p-tolylthiazole-5-carboxylate] | – | – | Luc/Gal [1, 5]: 14.93
36 | CCCc1cc(-c2nc(-c3ccc(NC(=O)OC(C)(C)C)cc3)cs2)ccn1 [Compound 40, tert-butyl 4-(2-(2-propylpyridin-4-yl)thiazol-4-yl)phenylcarbamate] | – | – | Luc/Gal [1, 6]: 2.4390
37 | CCCc1cc(-c2nc(-c3ccc(NC4CCCCC4)cc3)cs2)ccn1 [Compound 41, N-cyclohexyl-4-(2-(2-propylpyridin-4-yl)thiazol-4-yl)benzenamine] | – | – | Luc/Gal [1, 6]: 6.5229
38 | CCCc1cc(-c2nc(-c3ccc(NS(=O)(=O)c4ccc(C)cc4)cc3)cs2)ccn1 [Compound 42, 4-(2-(2-propylpyridin-4-yl)thiazol-4-yl)-N-tosylbenzenamine] | – | – | Luc/Gal [1, 6]: 3.3957
39 | CCCc1cc(-c2nc(-c3ccc(NS(=O)(=O)c4cccc5cccnc45)cc3)cs2)ccn1 [Compound 43, N-(4-(2-(2-propylpyridin-4-yl)thiazol-4-yl)phenyl)-8-quinolinesulfonamide] | – | – | Luc/Gal [1, 6]: 2.8506
40 | CCCc1cc(-c2nc(-c3ccc(NS(=O)(=O)c4cccs4)cc3)cs2)ccn1 [Compound 44, N-(4-(2-(2-propylpyridin-4-yl)thiazol-4-yl)phenyl)-2-thiophenesulfonamide] | – | – | Luc/Gal [1, 6]: 1.8538
